The values that follow come from US20110166121A1 (LG LIFE SCIENCES LTD., priority 2008, published 2011).

The assay relates to Human platelet aggregation caused by ADP. Nature of the assay: Inhibition of ADP-induced platelet aggregation (Mimic-human PRP). The format is cell-based. As to conditions: 20 μM ADP, human platelet concentrate diluted with PPP, absorption at 595 nm. An outline of the steps: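 Human PRP diluted with PPP to 3–4×10^8 platelets/mL was preincubated 20 min at room temperature with compound (0.01–30 μM, DMSO), then stimulated with 20 μM ADP. Aggregation read as A595 increase at 3 min versus 0 and 20 μM ADP controls; Ki from sigmoidal non-linear regression.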

In turn, `CCCc1cc2c(N3CCn4c(nnc4C(F)(F)F)C3)nc(-n3cc(N)cn3)nc2s1` [Example 9-56, 1-[6-Propyl-4-(3-trifluoromethyl-5,6-dihydro-8H-[1,2,4]triazolo[4,3-a]pyrazin-7-yl)-thieno[2,3-d]pyrimidin-2-yl]-1H-pyrazol-4-ylamine] displayed a Ki of 30 nM.

Regarding `CCCc1cc2c(N3CCn4c(nnc4C(F)(F)F)C3)nc(-n3cc(NC(C)=O)cn3)nc2s1` [Example 9-57, N-{1-[6-Propyl-4-(3-trifluoromethyl-5,6-dihydro-8H-[1,2,4]triazolo[4,3-a]pyrazin-7-yl)-thieno[2,3-d]pyrimidin-2-yl]-1H-pyrazol-4-yl}-acetamide], the Ki came out at 410 nM.

As for `CCCc1cc2c(N3CCn4c(nnc4C(F)(F)F)C3)nc(Nc3cn[nH]c3)nc2s1` [Example 9-58, [6-Propyl-4-(3-trifluoromethyl-5,6-dihydro-8H-[1,2,4]triazolo[4,3-a]pyrazin-7-yl)-thieno[2,3-d]pyrimidin-2-yl]-(1H-pyrazol-4-yl)-amine], the Ki was 22 nM.

`CCCc1cc2c(N3CCn4c(nnc4C(F)(F)F)C3=O)nc(OCCC(=O)O)nc2s1` [Example 9-59, 3-[4-(8-Oxo-3-trifluoromethyl-5,6-dihydro-8H-[1,2,4]triazolo[4,3-a]pyrazin-7-yl)-6-propyl-thieno[2,3-d]pyrimidin-2-yloxy]-propionic acid] came in with a Ki of over 10000 nM.

In turn, `CCC(=O)c1cc2c(N3CCn4c(nnc4C(F)(F)F)C3)nc(OCCC(=O)O)nc2s1` [Example 9-61, 3-[6-Propionyl-4-(3-trifluoromethyl-5,6-dihydro-8H-[1,2,4]triazolo[4,3-a]pyrazin-7-yl)-thieno[2,3-d]pyrimidin-2-yloxy]-propionic acid] registered a Ki of over 10000 nM.

As for `CCCCNC(=O)[C@H]1CCN(c2nc(N3CCn4c(nnc4C(F)(F)F)C3)c3cc(CCC)sc3n2)C1` [Example 9-62, (S)-1-[6-Propyl-4-(3-trifluoromethyl-5,6-dihydro-8H-[1,2,4]triazolo[4,3-a]pyrazin-7-yl)-thieno[2,3-d]pyrimidin-2-yl]-pyrrolidine-3-carboxylic acid butylamide], the affinity, expressed as Ki, was 400 nM.

In turn, `CCCCN(C)C(=O)[C@H]1CCN(c2nc(N3CCn4c(nnc4C(F)(F)F)C3)c3cc(CCC)sc3n2)C1` [Example 9-63, (S)-1-[6-Propyl-4-(3-trifluoromethyl-5,6-dihydro-8H-[1,2,4]triazolo[4,3-a]pyrazin-7-yl)-thieno[2,3-d]pyrimidin-2-yl]-pyrrolidine-3-carboxylic acid butyl-methyl-amide] yielded a Ki of 2000 nM.

As to `CCCc1cc2c(N3CCn4c(nnc4C(F)(F)F)C3)nc(N3CC[C@H](C(=O)NC4CCCC4)C3)nc2s1` [Example 9-64, (S)-1-[6-Propyl-4-(3-trifluoromethyl-5,6-dihydro-8H-[1,2,4]triazolo[4,3-a]pyrazin7-yl)-thieno[2,3-d]pyrimidin-2-yl]-pyrrolidine-3-carboxylic acid cyclopentylamide], the inhibition constant (Ki) amounted to 1400 nM.

Turning to `CCCc1cc2c(N3CCn4c(nnc4C(F)(F)F)C3)nc(N3CC[C@H](C(=O)N(C)C4CCCCC4)C3)nc2s1` [Example 9-65], the inhibition constant (Ki) stood at 9300 nM.

`CCCc1cc2c(N3CCn4c(nnc4C(F)(F)F)C3)nc(OCCC(=O)NC)nc2s1` [Example 9-66, N-Methyl-3-[6-propyl-4-(3-trifluoromethyl-5,6-dihydro-8H-[1,2,4]triazolo[4,3-a]pyrazin-7-yl)-thieno[2,3-d]pyrimidin-2-yloxy]-propionamide] came in with a Ki of 5.2 nM.

`CCCc1cc2c(N3CCn4c(nnc4C(F)(F)F)C3)nc(OCCC(=O)N(C)C)nc2s1` [Example 9-67, N,N-Dimethyl-3-[6-propyl-4-(3-trifluoromethyl-5,6-dihydro-8H-[1,2,4]triazolo[4,3-a]pyrazin-7-yl)-thieno[2,3-d]pyrimidin-2-yloxy]-propionamide] had a Ki of 97 nM.

In turn, `CCCc1cc2c(N3CCn4c(nnc4C(F)(F)F)C3)nc(OCCC(=O)N3CCCC3)nc2s1` [Example 9-68, 3-[6-Propyl-4-(3-trifluoromethyl-5,6-dihydro-8H-[1,2,4]triazolo[4,3-a]pyrazin-7-yl)-thieno[2,3-d]pyrimidin-2-yloxy]-1-pyrrolidin-1-yl-propan-1-one] gave a Ki of 260 nM.

Molecule `CCCc1cc2c(N3CCn4c(nnc4C(F)(F)F)C3)nc(OCCC(=O)NC3CCCC3)nc2s1` [Example 9-69, N-Cyclopentyl-3-[6-propyl-4-(3-trifluoromethyl-5,6-dihydro-8H-[1,2,4]triazolo[4,3-a]pyrazin-7-yl)-thieno[2,3-d]pyrimidin-2-yloxy]-propionamide] had a Ki of 550 nM.

`CCCc1cc2c(N3CCn4c(nnc4C(F)(F)F)C3)nc(OCCC(N)=O)nc2s1` [Example 9-70, 3-[6-Propyl-4-(3-trifluoromethyl-5,6-dihydro-8H-[1,2,4]triazolo[4,3-a]pyrazin-7-yl)-thieno[2,3-d]pyrimidin-2-yloxy]-propionamide] came in with a Ki of 6 nM.

Molecule `CCCc1cc2c(N3CCn4c(nnc4C(F)(F)F)C3)nc(OCCC#N)nc2s1` [Example 9-71, 3-[6-Propyl-4-(3-trifluoromethyl-5,6-dihydro-8H-[1,2,4]triazolo[4,3-a]pyrazin-7-yl)-thieno[2,3-d]pyrimidin-2-yloxy]-propionitrile] had a Ki of 0.7 nM.

For the molecule `CCCc1cc2c(N3CCn4c(nnc4C(F)(F)F)C3)nc(N3CC[C@H](C(=O)NN)C3)nc2s1` [Example 9-72, (S)-1-[6-Propyl-4-(3-trifluoromethyl-5,6-dihydro-8H-[1,2,4]triazolo[4,3-a]pyrazin-7-yl)-thieno[2,3-d]pyrimidin-2-yl]-pyrrolidine-3-carboxylic acid hydrazide], the Ki is 0.6 nM.

`CCCc1cc2c(N3CCn4c(nnc4C(F)(F)F)C3)nc(OCCC(=O)NN)nc2s1` [Example 9-73, 3-[6-Propyl-4-(3-trifluoromethyl-5,6-dihydro-8H-[1,2,4]triazolo[4,3-a]pyrazin-7-yl)-thieno[2,3-d]pyrimidin-2-yloxy]-propionic acid hydrazide] yielded a Ki of 16 nM.

Turning to `CCCc1cc2c(N3CCn4c(nnc4C(F)(F)F)C3)nc(OC(C)CNC=O)nc2s1` (stereo not shown) [Example 9-74, N-{2-[6-Propyl-4-(3-trifluoromethyl-5,6-dihydro-8H-[1,2,4]triazolo[4,3-a]pyrazin-7-yl)-thieno[2,3-d]pyrimidin-2-yloxy]-propyl}-formamide], affinity was put at a Ki of 3.8 nM.

Turning to `CCCc1cc2c(N3CCn4c(nnc4C(F)(F)F)C3)nc(OCC(C)NC=O)nc2s1` (stereo not shown) [Example 9-75, N-{1-Methyl-2-[6-propyl-4-(3-trifluoromethyl-5,6-dihydro-8H-[1,2,4]triazolo[4,3-a]pyrazin-7-yl)-thieno[2,3-d]pyrimidin-2-yloxy]-ethyl}-formamide], the Ki stood at 3 nM.

`CCCc1cc2c(N3CCn4c(nnc4C(F)(F)F)C3)nc(OC(C)CNC(C)=O)nc2s1` (stereo not shown) [Example 9-76, N-{2-[6-Propyl-4-(3-trifluoromethyl-5,6-dihydro-8H-[1,2,4]triazolo[4,3-a]pyrazin-7-yl)-thieno[2,3-d]pyrimidin-2-yloxy]-propyl}-acetamide] registered a Ki of 22 nM.

For `CCCc1cc2c(N3CCn4c(nnc4C(F)(F)F)C3)nc(OCC(C)NC(C)=O)nc2s1` (stereo not shown) [Example 9-77, N-{1-Methyl-2-[6-propyl-4-(3-trifluoromethyl-5,6-dihydro-8H-[1,2,4]triazolo[4,3-a]pyrazin-7-yl)-thieno[2,3-d]pyrimidin-2-yloxy]-ethyl}-acetamide], the Ki was determined as 6 nM.

For `CCCc1cc2c(N3CCn4c(nnc4C(F)(F)F)C3)nc(OCC(C)(C)NC=O)nc2s1` [Example 9-78, N-{1,1-Dimethyl-2-[6-propyl-4-(3-trifluoromethyl-5,6-dihydro-8H-[1,2,4]triazolo[4,3-a]pyrazin-7-yl)-thieno[2,3-d]pyrimidin-2-yloxy]-ethyl}-formamide], the affinity, expressed as Ki, was 25 nM.

Molecule `CCCc1cc2c(N3CCn4c(nnc4C(F)(F)F)C3)nc(OCC(C)(C)NC(C)=O)nc2s1` [Example 9-79, N-{1,1-Dimethyl-2-[6-propyl-4-(3-trifluoromethyl-5,6-dihydro-8H-[1,2,4]triazolo[4,3-a]pyrazin-7-yl)-thieno[2,3-d]pyrimidin-2-yloxy]-ethyl}-acetamide] registered a Ki of 3.4 nM.

With `CCCc1cc2c(N3CCn4c(nnc4C(F)(F)F)C3)nc(OC(C)CNC(=O)OC)nc2s1` (stereo not shown) [Example 9-80, {2-[6-Propyl-4-(3-trifluoromethyl-5,6-dihydro-8H-[1,2,4]triazolo[4,3-a]pyrazin-7-yl)-thieno[2,3-d]pyrimidin-2-yloxy]-propyl}-carbamic acid methyl ester], the Ki came out at 15 nM.

`CCCc1cc2c(N3CCn4c(nnc4C(F)(F)F)C3)nc(OCC(C)NC(=O)OC)nc2s1` (stereo not shown) [Example 9-81, {1-Methyl-2-[6-propyl-4-(3-trifluoromethyl-5,6-dihydro-8H-[1,2,4]triazolo[4,3-a]pyrazin-7-yl)-thieno[2,3-d]pyrimidin-2-yloxy]-ethyl}-carbamic acid methyl ester] returned an inhibition constant Ki of 7 nM.

As to `CCCc1cc2c(N3CCn4c(nnc4C(F)(F)F)C3)nc(OCC(C)(C)NC(=O)OC)nc2s1` [Example 9-82, {1,1-Dimethyl-2-[6-propyl-4-(3-trifluoromethyl-5,6-dihydro-8H-[1,2,4]triazolo[4,3-a]pyrazin-7-yl)-thieno[2,3-d]pyrimidin-2-yloxy]-ethyl}-carbamic acid methyl ester], the Ki stood at 5 nM.

With `CCCc1cc2c(N3CCn4c(nnc4C(F)(F)F)C3)nc(OCCF)nc2s1` [Example 9-83, 7-[2-(2-Fluoro-ethoxy)-6-propyl-thieno[2,3-d]pyrimidin-4-yl]-3-trifluoromethyl-5,6,7,8-tetrahydro-[1,2,4]triazolo[4,3-a]pyrazine], the affinity corresponds to a Ki of 0.3 nM.

On to `CCCc1cc2c(N3CCn4c(nnc4C(F)(F)F)C3)nc(OCC(F)(F)F)nc2s1` [Example 9-84, 7-[6-Propyl-2-(2,2,2-trifluoro-ethoxy)-thieno[2,3-d]pyrimidin-4-yl]-3-trifluoromethyl-5,6,7,8-tetrahydro-[1,2,4]triazolo[4,3-a]pyrazine], for which the Ki is 680 nM.
